What was measured:
Assay in all cases: NCI 60 cell line screen, sulforhodamine B, 48 h
Type in all cases: cell-based, human
[1] = system: NCI-H322M; conditions: Non-Small Cell Lung Cancer
Experimental: (§1) A detailed description of the screening procedure can be found at hypertext transfer protocol (http://) “dtp.nci.nih.gov/branches/btb/ivclsp.html.”
(§2) In brief, each of the 60 human tumor cell lines were grown in RPMI 1640 medium, supplemented with 5% fetal bovine serum and 2 mM L-glutamine. Cells were plated at their appropriate density in 96-well microtiter plates and incubated at 37° C., 5% CO2, 95% air and 100% relative humidity. […] Cells were incubated for an additional 48 hours and a sulforhodamine B protein assay was used to estimate cell viability or growth.

[2] = system: HT29
Experimental: as §1, §2

[3] = system: UACC-62
Experimental: as §1, §2

[4] = system: TK-10; conditions: TK-10, Renal Cancer
Experimental: as §1, §2

[5] = system: U251; conditions: U251, CNS Cancer
Experimental: as §1, §2

[6] = system: SNB-75; conditions: SNB-75, CNS Cancer
Experimental: as §1, §2

[7] = system: KM12; conditions: KM12, Colon Cancer
Experimental: as §1, §2

[8] = system: OVCAR-4; conditions: OVCAR-4, Ovarian Cancer
Experimental: as §1, §2

[9] = system: RXF393; conditions: RXF393, Renal Cancer
Experimental: as §1, §2

[10] = system: HCT-15
Experimental: as §1, §2

[11] = system: ACHN; conditions: Renal Cancer
Experimental: as §1, §2

[12] = system: NCI-H236; conditions: NCI-H236, Non-Small Cell Lung Cancer
Experimental: as §1, §2

[13] = system: CCRF-CEM; conditions: Leukemia
Experimental: as §1, §2

[14] = system: tGROV1; conditions: tGROV1, Ovarian Cancer
Experimental: as §1, §2

[15] = system: K-562; conditions: K-562, Leukemia
Experimental: as §1, §2

[16] = system: LOX IMVI; conditions: Melanoma
Experimental: as §1, §2

[17] = system: SF-539; conditions: SF-539, CNS Cancer
Experimental: as §1, §2

[18] = system: MOLT-4
Experimental: as §1, §2

[19] = system: SF-295; conditions: SF-295, CNS Cancer
Experimental: as §1, §2

[20] = system: SF-268; conditions: SF-268, CNS Cancer
Experimental: as §1, §2

[21] = system: SW-620; conditions: SW-620, Colon Cancer
Experimental: as §1, §2

[22] = system: DU-145
Experimental: as §1, §2

[23] = system: SK-MEL-2; conditions: SK-MEL-2, Melanoma
Experimental: as §1, §2

[24] = system: HDP-62; conditions: HDP-62, Non-Small Cell Lung Cancer
Experimental: as §1, §2

[25] = system: A498
Experimental: as §1, §2

[26] = system: NCI-H460; conditions: NCI-H460, Non-Small Cell Lung Cancer
Experimental: as §1, §2

[27] = system: SNB-19
Experimental: as §1, §2

[28] = system: T-47D
Experimental: as §1, §2

[29] = system: HCC-2998
Experimental: as §1, §2

[30] = system: OVCAR-8; conditions: OVCAR-8, Ovarian Cancer
Experimental: as §1, §2

[31] = system: UACC-257
Experimental: as §1, §2

## C[C@@]12OC(=O)[C@]1([C@@H](O)[C@@H]1C=CCCC1)NC(=O)[C@@H]2CCCl [Formula II-16, Salinosporamide A]
[1]
  Log10 G150: <-8.00 Molar
  Log10 TGI: -5.48 Molar
[2]; HT29, Colon Cancer
  Log10 G150: <-8.00 Molar
  Log10 TGI: -7.37 Molar
[2]; Homo sapiens, HT-29, read-out: Log10 LC50 (converted)
  CC50: 38 µM
[3]; Homo sapiens, UACC-62, read-out: Log10 LC50 (converted)
  CC50: 0.0912 µM
[3]; UACC-62, Melanoma
  Log10 G150: <-8.00 Molar
  Log10 TGI: <-8.00 Molar
[4]
  Log10 G150: <-8.00 Molar
  Log10 TGI: -7.13 Molar
[5]
  Log10 G150: <-8.00 Molar
  Log10 TGI: -5.99 Molar
[6]
  Log10 G150: <-8.00 Molar
  Log10 TGI: <-8.00 Molar
[7]
  Log10 G150: <-8.00 Molar
  Log10 TGI: -6.00 Molar
[8]
  Log10 G150: <-8.00 Molar
  Log10 TGI: <-8.00 Molar
[9]
  Log10 G150: <-8.00 Molar
  Log10 TGI: <-8.00 Molar
[10]; HCT-15, Colon Cancer
  Log10 G150: <-8.00 Molar
  Log10 TGI: -6.06 Molar
[10]; Homo sapiens, HCT-15, read-out: Log10 LC50 (converted)
  CC50: 56.2 µM
[11]
  Log10 G150: <-8.00 Molar
  Log10 TGI: -5.27 Molar
[12]
  Log10 G150: <-8.00 Molar
  Log10 TGI: <-8.00 Molar
[13]
  Log10 G150: <-8.00 Molar
  Log10 TGI: <-8.00 Molar
[14]
  Log10 G150: <-8.00 Molar
  Log10 TGI: -5.18 Molar
[15]
  Log10 G150: <-8.00 Molar
  Log10 TGI: -5.59 Molar
[16]
  Log10 G150: <-8.00 Molar
  Log10 TGI: -7.87 Molar
[17]
  Log10 G150: <-8.00 Molar
  Log10 TGI: <-8.00 Molar
[18]; Homo sapiens, MOLT-4, read-out: Log10 LC50 (converted)
  CC50: > 100 µM
[18]; MOLT-4, Leukemia
  Log10 G150: <-8.00 Molar
  Log10 TGI: <-8.00 Molar
[19]
  Log10 G150: <-8.00 Molar
  Log10 TGI: <-8.00 Molar
[20]
  Log10 G150: <-8.00 Molar
  Log10 TGI: -6.92 Molar
[21]
  Log10 G150: <-8.00 Molar
  Log10 TGI: >-4.00 Molar
[22]; DU-145, Prostate Cancer
  Log10 G150: <-8.00 Molar
  Log10 TGI: >-4.00 Molar
[22]; Homo sapiens, DU-145, read-out: Log10 LC50 (converted)
  CC50: > 100 µM
[23]
  Log10 G150: <-8.00 Molar
  Log10 TGI: <-8.00 Molar
[24]
  Log10 G150: <-8.00 Molar
  Log10 TGI: -4.89 Molar
[25]; A498, Renal Cancer
  Log10 G150: <-8.00 Molar
  Log10 TGI: <-8.00 Molar
[25]; Homo sapiens, A498, read-out: Log10 LC50 (converted)
  CC50: 0.0115 µM
[26]
  Log10 G150: <-8.00 Molar
  Log10 TGI: -6.97 Molar
[27]; Homo sapiens, SNB-19, read-out: Log10 LC50 (converted)
  CC50: > 100 µM
[27]; SNB-19, CNS Cancer
  Log10 G150: <-8.00 Molar
  Log10 TGI: >-4.00 Molar
[28]; Homo sapiens, T47D, read-out: Log10 LC50 (converted)
  CC50: > 100 µM
[28]; T-47D, Breast Cancer
  Log10 G150: <-8.00 Molar
  Log10 TGI: >-4.00 Molar
[29]; HCC-2998, Colon Cancer
  Log10 G150: <-8.00 Molar
  Log10 TGI: <-8.00 Molar
[29]; Homo sapiens, HCC 2998, read-out: Log10 LC50 (converted)
  CC50: 0.0178 µM
[30]
  Log10 G150: <-8.00 Molar
  Log10 TGI: -7.70 Molar
[31]; Homo sapiens, UACC-257, read-out: Log10 LC50 (converted)
  CC50: 0.427 µM
[31]; UACC-257, Melanoma
  Log10 G150: <-8.00 Molar
  Log10 TGI: <-8.00 Molar

Reference: patent US7572606B1 (Nereus Pharmaceuticals, Inc., priority 2005, dated 2009)
